Results reported in the NIST ThermoML archive (doi:10.1016/j.tca.2013.08.031).
Values joined by “and” are separate entries in the source; they are usually repeats but may differ in a detail not shown here. Equal values may be shown once.

Assay: molar heat capacity at constant volume
Conditions: Fluid (supercritical or subcritical phases), Vacuum adiabatic calorimetry

CCC(C)O (stereo unspecified) [butan-2-ol]
Conditions	molar heat capacity at constant volume
375.31 K, Mass density=735.98 kg/m3	219.47 J/K/mol
375.53 K, Mass density=735.98 kg/m3	217.99 J/K/mol
375.75 K, Mass density=735.98 kg/m3	218.29 J/K/mol
375.97 K, Mass density=735.98 kg/m3	219.25 J/K/mol
376.19 K, Mass density=735.98 kg/m3	217.99 J/K/mol
376.42 K, Mass density=735.98 kg/m3	219.47 J/K/mol
376.64 K, Mass density=735.98 kg/m3	218.29 J/K/mol
376.86 K, Mass density=735.98 kg/m3	219.47 J/K/mol
377.08 K, Mass density=735.98 kg/m3	217.77 J/K/mol
377.3 K, Mass density=735.98 kg/m3	219.55 J/K/mol
377.52 K, Mass density=735.98 kg/m3	219.33 J/K/mol
407.02 K, Mass density=683.53 kg/m3	273.88 J/K/mol
407.23 K, Mass density=683.53 kg/m3	278.47 J/K/mol
407.44 K, Mass density=683.53 kg/m3	275.51 J/K/mol
407.65 K, Mass density=683.53 kg/m3	274.18 J/K/mol
407.86 K, Mass density=683.53 kg/m3	273.95 J/K/mol
408.07 K, Mass density=683.53 kg/m3	279.22 J/K/mol
408.28 K, Mass density=683.53 kg/m3	277.29 J/K/mol
408.49 K, Mass density=683.53 kg/m3	260.39 J/K/mol
408.7 K, Mass density=683.53 kg/m3	246.01 J/K/mol
408.91 K, Mass density=683.53 kg/m3	240.23 J/K/mol
409.12 K, Mass density=683.53 kg/m3	236.6 J/K/mol
409.33 K, Mass density=683.53 kg/m3	234.08 J/K/mol
409.54 K, Mass density=683.53 kg/m3	232.22 J/K/mol
409.75 K, Mass density=683.53 kg/m3	224.59 J/K/mol
409.96 K, Mass density=683.53 kg/m3	223.4 J/K/mol
410.17 K, Mass density=683.53 kg/m3	224.22 J/K/mol
410.38 K, Mass density=683.53 kg/m3	222.66 J/K/mol
413.11 K, Mass density=648.53 kg/m3	272.62 J/K/mol
413.31 K, Mass density=648.53 kg/m3	273.21 J/K/mol
413.52 K, Mass density=648.53 kg/m3	273.66 J/K/mol
413.73 K, Mass density=648.53 kg/m3	273.51 J/K/mol
413.94 K, Mass density=648.53 kg/m3	272.62 J/K/mol
414.15 K, Mass density=648.53 kg/m3	272.84 J/K/mol
414.78 K, Mass density=683.53 kg/m3	226.66 J/K/mol
414.99 K, Mass density=683.53 kg/m3	226.89 J/K/mol
415.19 K, Mass density=683.53 kg/m3	227.55 J/K/mol and 227.85 J/K/mol
419.77 K, Mass density=683.53 kg/m3	228.67 J/K/mol
419.97 K, Mass density=683.53 kg/m3	227.55 J/K/mol
420.6 K, Mass density=683.53 kg/m3	230.59 J/K/mol
421.42 K, Mass density=683.53 kg/m3	231.85 J/K/mol
421.63 K, Mass density=683.53 kg/m3	230 J/K/mol
422.25 K, Mass density=683.53 kg/m3	230.81 J/K/mol
422.46 K, Mass density=683.53 kg/m3	231.11 J/K/mol
422.66 K, Mass density=683.53 kg/m3	231.85 J/K/mol
422.87 K, Mass density=683.53 kg/m3	231.33 J/K/mol
423.08 K, Mass density=683.53 kg/m3	231.41 J/K/mol
423.28 K, Mass density=683.53 kg/m3	230.81 J/K/mol
423.49 K, Mass density=683.53 kg/m3	231.48 J/K/mol
423.69 K, Mass density=683.53 kg/m3	231.93 J/K/mol
424.31 K, Mass density=683.53 kg/m3	231.11 J/K/mol
424.52 K, Mass density=683.53 kg/m3	230.52 J/K/mol
424.72 K, Mass density=683.53 kg/m3	230.81 J/K/mol
424.93 K, Mass density=683.53 kg/m3	230.44 J/K/mol
425.14 K, Mass density=683.53 kg/m3	231.33 J/K/mol
425.75 K, Mass density=683.53 kg/m3	231.19 J/K/mol
425.96 K, Mass density=683.53 kg/m3	230.89 J/K/mol and 228.44 J/K/mol
426.16 K, Mass density=683.53 kg/m3	227.48 J/K/mol
426.37 K, Mass density=683.53 kg/m3	226.74 J/K/mol
426.58 K, Mass density=683.53 kg/m3	227.41 J/K/mol
426.78 K, Mass density=683.53 kg/m3	227.03 J/K/mol
426.99 K, Mass density=683.53 kg/m3	227.48 J/K/mol
431.29 K, Mass density=648.53 kg/m3	278.03 J/K/mol
431.49 K, Mass density=648.53 kg/m3	279.14 J/K/mol
431.7 K, Mass density=648.53 kg/m3	277.66 J/K/mol
431.9 K, Mass density=648.53 kg/m3	277.88 J/K/mol
432.31 K, Mass density=648.53 kg/m3	278.77 J/K/mol
432.51 K, Mass density=648.53 kg/m3	277.14 J/K/mol
432.72 K, Mass density=648.53 kg/m3	277.44 J/K/mol
432.92 K, Mass density=648.53 kg/m3	279.22 J/K/mol
432.92 K, Mass density=683.53 kg/m3	227.18 J/K/mol
433.12 K, Mass density=648.53 kg/m3	278.55 J/K/mol
433.12 K, Mass density=683.53 kg/m3	228 J/K/mol
433.33 K, Mass density=648.53 kg/m3	272.99 J/K/mol
433.33 K, Mass density=683.53 kg/m3	227.63 J/K/mol
433.53 K, Mass density=648.53 kg/m3	225.03 J/K/mol
433.53 K, Mass density=683.53 kg/m3	227.78 J/K/mol
433.73 K, Mass density=648.53 kg/m3	224.81 J/K/mol
433.73 K, Mass density=683.53 kg/m3	228.29 J/K/mol
433.94 K, Mass density=648.53 kg/m3	222.29 J/K/mol
434.14 K, Mass density=648.53 kg/m3	223.48 J/K/mol
434.55 K, Mass density=648.53 kg/m3	221.92 J/K/mol
434.75 K, Mass density=648.53 kg/m3	221.25 J/K/mol
434.96 K, Mass density=648.53 kg/m3	222.96 J/K/mol
435.16 K, Mass density=648.53 kg/m3	222.74 J/K/mol
435.36 K, Mass density=648.53 kg/m3	222.88 J/K/mol
449.87 K, Mass density=598.18 kg/m3	278.18 J/K/mol
450.07 K, Mass density=598.18 kg/m3	277.14 J/K/mol
450.27 K, Mass density=598.18 kg/m3	279.22 J/K/mol
450.47 K, Mass density=598.18 kg/m3	276.18 J/K/mol
450.66 K, Mass density=598.18 kg/m3	277.36 J/K/mol
457.62 K, Mass density=648.53 kg/m3	222.14 J/K/mol
457.82 K, Mass density=598.18 kg/m3	274.62 J/K/mol
457.82 K, Mass density=648.53 kg/m3	221.85 J/K/mol
458.02 K, Mass density=598.18 kg/m3	274.4 J/K/mol
458.02 K, Mass density=648.53 kg/m3	222.88 J/K/mol
458.22 K, Mass density=598.18 kg/m3	277.66 J/K/mol
458.22 K, Mass density=648.53 kg/m3	224.51 J/K/mol
458.41 K, Mass density=598.18 kg/m3	277.29 J/K/mol
458.41 K, Mass density=648.53 kg/m3	223.62 J/K/mol
458.61 K, Mass density=598.18 kg/m3	278.85 J/K/mol
458.81 K, Mass density=598.18 kg/m3	277.59 J/K/mol
459.01 K, Mass density=598.18 kg/m3	279.44 J/K/mol
462.16 K, Mass density=598.18 kg/m3	275.88 J/K/mol
462.36 K, Mass density=598.18 kg/m3	274.69 J/K/mol
462.56 K, Mass density=598.18 kg/m3	273.58 J/K/mol
